Data as given in patent publication US11944624B2, “Peptide and small molecule agonists of EphA and their uses” (CASE WESTERN RESERVE UNIVERSITY, priority 2017, dated 2024).

Columns and labels:
[1] = target: T1, endogenous EphB4 (Homo sapiens, UniProt P54760); test: Endogenous EphB4 activation in HEK 293 vector control cells; assay type: cell-based
T1 construct: host or cells: HEK 293 (vector control)
T1 sequence (P54760 16-987): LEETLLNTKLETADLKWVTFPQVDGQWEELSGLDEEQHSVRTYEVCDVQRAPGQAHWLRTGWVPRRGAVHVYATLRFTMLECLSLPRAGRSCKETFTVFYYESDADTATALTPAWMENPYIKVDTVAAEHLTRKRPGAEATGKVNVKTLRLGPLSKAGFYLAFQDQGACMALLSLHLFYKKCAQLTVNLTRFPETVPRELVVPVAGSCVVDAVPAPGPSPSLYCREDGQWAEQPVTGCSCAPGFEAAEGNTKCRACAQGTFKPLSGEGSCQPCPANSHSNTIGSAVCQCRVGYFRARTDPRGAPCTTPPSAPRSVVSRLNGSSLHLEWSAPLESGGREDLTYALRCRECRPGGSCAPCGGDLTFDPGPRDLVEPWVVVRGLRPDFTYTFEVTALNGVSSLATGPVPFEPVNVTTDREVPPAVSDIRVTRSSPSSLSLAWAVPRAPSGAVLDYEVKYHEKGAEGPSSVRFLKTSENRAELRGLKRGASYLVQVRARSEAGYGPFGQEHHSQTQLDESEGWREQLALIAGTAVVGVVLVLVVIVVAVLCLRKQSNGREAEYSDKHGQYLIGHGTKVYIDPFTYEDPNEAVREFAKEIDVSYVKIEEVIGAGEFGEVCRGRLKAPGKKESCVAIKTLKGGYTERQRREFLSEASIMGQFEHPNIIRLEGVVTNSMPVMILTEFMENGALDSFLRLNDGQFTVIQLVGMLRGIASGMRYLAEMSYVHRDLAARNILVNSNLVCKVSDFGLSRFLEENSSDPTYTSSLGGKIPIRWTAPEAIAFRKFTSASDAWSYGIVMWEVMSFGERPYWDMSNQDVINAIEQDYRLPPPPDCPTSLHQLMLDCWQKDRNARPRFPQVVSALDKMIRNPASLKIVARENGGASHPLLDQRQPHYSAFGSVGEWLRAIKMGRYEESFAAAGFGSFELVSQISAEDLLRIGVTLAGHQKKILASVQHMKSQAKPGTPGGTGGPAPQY
Description: Cells were plated in 24-well dishes at a density of 100,000 cells/well and grown for 24 hours prior to stimulation with appropriate compounds and ephrins for the given amounts of time. Compounds were prepared in DMSO at 500 times the final concentrations and 0.2% DMSO was used as vehicle control. Following treatment, cells were lysed directly in SDS Gel Loading Buffer and immunoblotted as described previously. […] For immunoprecipitation, 300,000 cells/well were plated in 6-well dishes and lysed in modified RIPA Buffer (20 mM Tris-HCl pH 7.4, 20 mM NaF, 150 mM NaCl, 10% glycerol, 0.1% SDS, 0.5% DCA, 2 mM EDTA, 1% Triton X-100) following treatment. Either 10 μg of ephrin-A1-Fc, or 4 mg of EphA2 mouse monoclonal antibody (Clone D7, Millipore) were used, and mouse IgG was used as a negative control for EphA2 IP. […] For this purpose, HEK 293 cell lines overexpressing EphA1, EphA2, EphA3, EphA4, and EphB3 kinases were utilized.

[2] = system: A172-A2 glioma cells; test: Haptotactic cell migration toward fibronectin, A172-A2; assay type: cell-based; conditions: A172-A2, 4 hours
Description: One of the well-established functions of Eph receptors is the ligand-dependent repulsive guidance of cell migration. As a ligand-mimicking agonist for EphA2, doxazosin is expected to activate EphA2 on tumor cells and repulse migrating tumor cells in vitro. To test this possibility, we first investigated the effects of doxazosin on integrin-mediated haptotactic cell migration toward fibronectin in a modified Boyden chamber cell migration assay. […] The inhibitory effects were observed when doxazosin was presented either in the bottom chamber, or in both top and bottom chambers in the Transwell assay system. […] Therefore, doxazosin can recapitulate a key function attributed to its native ligands, i.e., negative regulation of cell migration.

[3] = system: PC3-DAB2IP KD cells; test: In vivo metastasis assay, orthotopic PC3-DAB2IP KD xenograft
Description: PC-3 cells (from ATCC) engineered to express both GFP and DAB2IP shRNA were characterized previously. Cells were suspended in serum free medium and 2,000 cells injected directly into the prostate glands of 7 week old NCr athymic nu/nu mice. Three days after injection, mice were divided into two groups, one receiving vehicle alone (5% DMSO/10% Cremophor/PBS) and another 50 mg/kg doxazosin via intraperitoneal injection daily for 10 days. Mice were sacrificed 14 days later and intact primary tumors were imaged under a UV light box with a Digital camera. Lungs were dissected into separate lobes and GFP-expressing metastases were imaged using an inverted fluorescent microscope (Leica). Metastases were enumerated in the two largest lung lobes and placed into size categories based upon their diameters, measured in number of cells (1-10 cells). Total metastatic burden was calculated in each mouse using the following equation: [burden=Σ (# of foci×focus diameter)].
We took advantage of this newly established model system to test how doxazosin can affect metastasis of prostate cancer. To this end, PC3-DAB2IP KD cells were injected orthotopically into the prostate glands of nude mice. Three days later, recipient mice were subject to systemic treatment by daily i.p. injection of either vehicle control, or 50 mg/kg doxazosin for 10 days. Since these cells also expressed green fluorescent protein (GFP), freshly dissected primary tumors could be readily visualized in a GFP light box (FIG. 7A top panels), and distal metastases to lungs and lymph nodes could be observed and quantified under a fluorescent microscope (FIG. 7A lower panels).
Next, we determined whether doxazosin treatment might impact overall survival. Nude mice orthotopically implanted with the PC3-DAP2IP KD cells were treated for 10 days with either doxazosin, or vehicle control and monitored for survival.

[4] = 50 mg/kg i.p. daily for 10 days, versus vehicle

COc1cc2nc(N3CCN(C(=O)C4COc5ccccc5O4)CC3)nc(N)c2cc1OC (stereo not shown) [Doxazosin, 2-[4-(2,3-Dihydro-1,4-benzodioxine-2-carbonyl)piperazin-1-yl]-6,7-dimethoxyquinazolin-4-amine]
endogenous EphB4 activation [1]: endogenous EphB4 was not activated
haptotactic cell migration toward fibronectin [2]: dose-dependent inhibition of cell migration
side effects ([3]; 50 mg/kg i.p. daily for 10 days): no notable side effects
body weight [3, 4]: no changes in body weight
number of lung metastases [3, 4]: significant reduction in the number of lung metastases
primary tumor sizes [3, 4]: difference was not statistically significant
sizes of lung metastases [3, 4]: significantly smaller
total metastatic burden [3, 4]: even more significantly reduced
tumor cell dissemination to local lymph nodes [3, 4]: reduced, but not to a significant extent
overall survival ([3]; 27 days after cell implantation, treated 10 days, vehicle 30%): 70%
